Laboratory results published in patent US5110935A, “New compounds which are active against the tissue forms of malaria and method of preparation” (Ire-Celltarg, S.A., priority 1988, dated 1992).
Several values for one entry are separate records, joined by “and”; a condition that tells them apart may be missing. Identical values can stand only once. Like-named read-outs stand apart in the source and are kept apart here.

How the values were obtained:
Plasmodium berghei = test: Therapeutic index in mice; assay type: in vivo, P. berghei; conditions: i.v.; for Therapeutic index (TI): ratio of LD50 to CPD50, mice; for Therapeutic index, fold higher than that of PQ: mice
From the text: The therapeutic index is defined as the ratio of the toxicity, expressed as LD50, to the therapeutic activity, expressed as CPD50, in mice.
^b : The therapeutic index (TI) is the ratio of LD50 to […]

[1] = Hemolytic effect on human red cells; assay type: cell-based; conditions: human, red cells, pH 7.4, 1 hour, 37° C., read-out: Hemolysis (% of total hemoglobin concentration); for hemolysis at 1 h, 1000 µM: 1 mM; for hemolysis at 1 h, 2000 µM: 2 mM; for hemolysis at 1 h, 5000 µM: 5 mM; for hemolysis at 1 h, 10000 µM: 10 mM
Method: (§6) Two important toxic effects of PQ were assessed on the two derivatives: the hemolytic effect and the conversion of hemoglobin to methemoglobin.
(§7) A+ blood is washed twice in 0.15M phosphatebuffered saline at pH 7.4 containing 20 mM glucose (GPBS), and then resuspended at a concentration of 50% in the same buffer. To this suspension, an equal volume of compound dissolved in GPBS at different concentrations (test), or of GPBS (control) is added. The final hematocrit of the suspension is 25%. After 60 minutes' incubation at 37° C., the concentration of hemoglobin and methemoglobin is determined on the total suspension, and the concentration of hemoglobin present in the supernatant after centrifugation (extracellular hemoglobin) is determined, by the cyanmethemoglobin and benzidine methods (Fairbanks V.F., 1976, in "Fundamentals of Clinical Chemistry, M.W. Tietz Editors, Saunders").

human erythrocytes = conditions: for Concentration combined with erythrocytes (% initial concentration): human red cells 10^9/ml, 100 μg/ml
Method: Fresh human blood (A+) on CPDA is washed twice in RPMI medium containing 20 mM glucose at pH 7.4, and then resuspended in the same medium at 37° C. to obtain a 20% suspension of red cells (2×10^9 erythrocytes/ml). To 1 ml of this suspension, 1 ml of a solution of PQ or derivatives at a concentration of 0.250 mM in the same medium at 37° C. is added.
After different incubation times at 37° C., 0.5 ml of sample is withdrawn and then transferred to an Eppendorf tube containing 0.4 ml of silicone oil (Merck, density 1.06 g/ml).
After centrifugation for 30 seconds at 12,000 g, the supernatant and the silicone oil are removed, while the cells in the pellet are lyzed by adding 0.5 ml of water. The quinoline compound present in combination with the cell lysate is then extracted by precipitation of the cell proteins with acetonitrile (0.5 ml) and thereafter analyzed by HPLC under the standard conditions.
The intracellular concentration of quinoline derivative is obtained by subtracting the concentration of compound present in the extracellular medium from the total concentration in the cell lysate. The contaminating extracellular volume is measured using tritiated inulin.

female Swiss OF1 mice = test: Acute toxicity in mice after a single i.v. administration; assay type: in vivo; conditions: for Maximum tolerated dose (MTD) / LD50: single i.v., mg PQ diphosphate equivalent/kg; for Maximum tolerated dose (MTD): weight loss not exceeding 5% during 5 days; for Fold less toxic than PQ: mice, i.v.
Method: (§1) The acute toxicity in terms of a single administered dose is determined on female Swiss OF1 mice weighing 22 to 25 g. A series of dilutions of each compound is injected intravenously into groups of 10 mice (0.1 ml per 10 g of weight).
(§2) The lethal dose for 50% of mice (LD50) is determined by linear regression of the logits of the percentage of surviving animals as a function of the logarithm of the dose injected (in mg PQ diphosphate equivalent/kg) (Logit Weighted Transformation, Berkson J., 1953; J. Am. Stat. Assoc. 48, 565-599).
(§3) ^a : The products are administered i.v. to groups of 10 female Swiss
(§4) ^b : Maximum tolerated dose (MTD), defined as the highest dose
(§5) The acute toxicity in terms of a single administered dose is determined under the same conditions and according the protocol of Example 3.

[2] = as above; assay type: in vivo; conditions: mouse, in vivo, iv, single i.v., mg PQ diphosphate equivalent/kg; for MTD: weight loss not exceeding 5% during 5 days, read-out: Maximum tolerated dose (MTD)
Method: as §1, §2, §3, §4, §5

human red cells = test: Methemoglobin production in human red cells; assay type: cell-based; conditions: for Methemoglobin (% of total hemoglobin concentration): 1 hour, 37° C.
Method: as §6, §7

[3] = Stability in the presence of fetal calf serum; assay type: in vitro ADME
Method: The influence of serum on the stability of primaquine (PQ) and its derivatives is determined by incubating these compounds at 37° C. at a concentration of 100 μg/ml in 95% fetal calf serum (FCS, Flow Laboratories) or human serum and phosphate-buffered saline (0.15 M PBSA, pH 7.2) as a control. All the solutions are sterilized by filtration on a Millipore filter (Millex GV) of porosity 0.20 μm.
At interval of time, 1-ml samples are withdrawn and the serum proteins are then extracted from them by precipitation with acetonitrile. For this purpose, an identical volume of acetonitrile is added to each sample. After vigorous mixing in a Vortex mixer, the samples are left for 1 hour at 4° C. and protected from light and then centrifuged for 5 minutes at 12,000 g. The supernatants are collected and then analyzed by HPLC (20- to 50-μl aliquot) under the standard conditions.
The results for the stability of primaquine and its two derivatives in the presence of fetal calf serum are recorded in Table 1; the results are expressed as a % of the initial concentration (time 0) after extraction.
^a : The compounds are incubated at 37° C. in the presence of
fetal calf serum (95% final) and then analyzed by spectrophotometry after
^b : The results represent the relative concentration of primaquine
(PQ) and of derivatives (PQX) in terms of the incubation time, expressed
as a percentage of the initial concentration (time 0) after extraction

[4] = fetal calf serum 95%, 37° C., 0 h
[5] = bovine, fetal calf serum 95%, 37° C., 1 h, read-out: Relative concentration of compound (% of initial concentration)
[6] = bovine, fetal calf serum 95%, 37° C., 1 h, read-out: Relative concentration of primaquine (PQ) from derivative
[7] = bovine, fetal calf serum 95%, 37° C., 2 h, read-out: Relative concentration of compound (% of initial concentration)
[8] = bovine, fetal calf serum 95%, 37° C., 2 h, read-out: Relative concentration of primaquine (PQ) from derivative
[9] = bovine, fetal calf serum 95%, 37° C., 3 h, read-out: Relative concentration of compound (% of initial concentration)
[10] = bovine, fetal calf serum 95%, 37° C., 3 h, read-out: Relative concentration of primaquine (PQ) from derivative
[11] = bovine, fetal calf serum 95%, 37° C., 6 h, read-out: Relative concentration of compound (% of initial concentration)
[12] = bovine, fetal calf serum 95%, 37° C., 6 h, read-out: Relative concentration of primaquine (PQ) from derivative
[13] = bovine, fetal calf serum 95%, 37° C., 24 h, read-out: Relative concentration of compound (% of initial concentration)
[14] = bovine, fetal calf serum 95%, 37° C., 24 h, read-out: Relative concentration of primaquine (PQ) from derivative

Compound | Therapeutic index (TI) (Plasmodium berghei) | hemolysis at 1 h, 1000 µM [1] | hemolysis at 1 h, 2000 µM [1] | hemolysis at 1 h, 5000 µM [1] | hemolysis at 1 h, 10000 µM [1] | Accumulation in erythrocytes (human erythrocytes; not told) | Maximum tolerated dose (MTD) (female Swiss OF1 mice) | MTD [2] | Methemoglobin (% of total hemoglobin concentration) (human red cells; 1 mM) | Methemoglobin (% of total hemoglobin concentration) (human red cells; 2 mM) | Methemoglobin (% of total hemoglobin concentration) (human red cells; 5 mM) | Methemoglobin (% of total hemoglobin concentration) (human red cells; 10 mM) | Relative concentration of compound (% of initial concentration) [3, 4] | Stability in the presence of serum ([3]; 37° C.) | Therapeutic index, fold higher than that of PQ (Plasmodium berghei) | Fold less toxic than PQ (female Swiss OF1 mice) | LD50 (female Swiss OF1 mice) | LD50 [2] | remaining at 1 h [3, 5] | metabolised at 1 h [3, 6] | other results
COc1cc(NC(C)CCCN)c2ncccc2c1 (stereo not drawn) [Primaquine, 6-methoxy-8-(4-amino-1-methylbutylamino)quinoline, reference compound] | 1.7 | 2.1% | 2.3% | 2.8% | 4.7% | taken up rapidly by erythrocytes | 24 (2.1) mg/kg | 24 mg/kg | 1.2 (0.5) % | 3.4 (1.8) % | 5.8 (0.2) % | 11.5 (4.2) % | 100% | unstable | – | – | – | – | – | – | Time for which concentration in red cells is maintained (human erythrocytes): at least one hour; Concentration combined with erythrocytes (% initial concentration) (human erythrocytes; 5 min): 17.7 (1.2) %; Concentration combined with erythrocytes (% initial concentration) (human erythrocytes; 5 min, listed as PQ): 18%; Concentration combined with erythrocytes (% initial concentration) (human erythrocytes; 10 min): 18.0 (3.4) %; Concentration combined with erythrocytes (% initial concentration) (human erythrocytes; 60 min): 18.8 (0.2) %; Methemoglobin (% of total hemoglobin concentration) (human red cells; 10 mM, listed as PQ): 11.5%; remaining at 1 h ([3]; bovine, fetal calf serum, fetal calf serum 95%, 37° C., 1 h, read-out: Relative concentration of compound (% of initial concentration)): 98%; remaining at 2 h ([3]; bovine, fetal calf serum, fetal calf serum 95%, 37° C., 2 h, read-out: Relative concentration of compound (% of initial concentration)): 87%; remaining at 3 h ([3]; bovine, fetal calf serum, fetal calf serum 95%, 37° C., 3 h, read-out: Relative concentration of compound (% of initial concentration)): 77%; remaining at 6 h ([3]; bovine, fetal calf serum, fetal calf serum 95%, 37° C., 6 h, read-out: Relative concentration of compound (% of initial concentration)): 34%; Second HPLC peak (Y) from primaquine [3, 4]: 0%; Second HPLC peak (Y) from primaquine ([3]; fetal calf serum 95%, 37° C., 1 h): 0%; Second HPLC peak (Y) from primaquine ([3]; fetal calf serum 95%, 37° C., 2 h): 5%; Second HPLC peak (Y) from primaquine ([3]; fetal calf serum 95%, 37° C., 3 h): 10%; Second HPLC peak (Y) from primaquine ([3]; fetal calf serum 95%, 37° C., 6 h): 11%; Second HPLC peak (Y) from primaquine ([3]; fetal calf serum 95%, 37° C., 24 h): 5%; Relative concentration of compound (% of initial concentration) ([3]; fetal calf serum 95%, 37° C., 24 h, 1440 min): 2%; Relative concentration of compound (% of initial concentration) ([3]; fetal calf serum 95%, 37° C., 24 h, listed as primaquine, 1440 min): 7%; Second peak (Y), maximum ([3]; fetal calf serum, after 2 hours' incubation): ≤ 10%
COc1cc(NC(C)CCCNC(=O)CC[C@H](N)C(=O)O)c2ncccc2c1 (stereo partly drawn) [gGLU-PQ, N-(γ-L-glutamyl)primaquine] | > 19 and 19.4 | 0.27% | – | 0.58% | – | not accumulated in erythrocytes | 117 (13) mg/kg | 117 mg/kg | 1.4 (0.0) % | – | 5.3 (0.0) % | – | 98 (1) % | a gradual decrease in the relative concentration is observed after 6 hours' incubation | at least 11 -fold | at least 5 -fold | 169 (9) mg/kg | 169 mg/kg | 96% | 3% | remaining at 2 h [3, 7]: 95%; metabolised at 2 h [3, 8]: 4%; remaining at 3 h [3, 9]: 94%; metabolised at 3 h [3, 10]: 4%; remaining at 6 h [3, 11]: 83%; metabolised at 6 h [3, 12]: 4%; remaining at 24 h [3, 13]: 51%; metabolised at 24 h [3, 14]: 4%; Duration of stability in serum ([3]; fetal calf serum): at least 3 hours; Relative concentration of primaquine (PQ) from derivative [3, 4]: 2 (1) %
COc1cc(NC(C)CCCNC(=O)[C@@H]2CCC(=O)N2)c2ncccc2c1 (stereo partly drawn) [pGLU-PQ, N-(α-L-pyroglutamyl)primaquine] | – | 0.32% | 0.24% | 0.44% | 2.34% | – | 126 (13) mg/kg | 126 mg/kg | 0.9 (0.1) % | 2.2 (0.9) % | 3.9 (0.0) % | 6.0 (0.2) % | 100% | undergoes no modification | 9 -fold | at least 5 -fold | 159 (6) mg/kg | 159 mg/kg | 100% | 0% | Time to maximum level in erythrocytes (human erythrocytes; not told): 60 min; Oxidation of hemoglobin, times less than PQ (human red cells; same concentration as PQ (10 mM)): 1.5 times less; remaining at 2 h [3, 7]: 101%; metabolised at 2 h [3, 8]: 0%; remaining at 3 h [3, 9]: 105%; metabolised at 3 h [3, 10]: 0%; remaining at 6 h [3, 11]: 103%; metabolised at 6 h [3, 12]: 0%; remaining at 24 h [3, 13]: 107%; metabolised at 24 h [3, 14]: 0%; remaining at 48 h ([3]; bovine, fetal calf serum 95%, 37° C., 48 h, read-out: Relative concentration of compound (% of initial concentration)): 87%; metabolised at 48 h ([3]; bovine, fetal calf serum 95%, 37° C., 48 h, read-out: Relative concentration of primaquine (PQ) from derivative): 0%; Relative concentration of primaquine (PQ) from derivative [3, 4]: 0%
